One experiment relates to DU145. As to the kind of experiment: MTT chemosensitivity assay, DU145. Type of experiment: cell-based, human. As to conditions: Homo sapiens, DU-145, 96 h exposure, ± SD, at least three independent experiments. On the technique in general: Formazan colour is commonly taken as a measure of viable cells.
A further experiment deals with T1, Human ALDH1A3 (Homo sapiens, UniProt P47895).
T1 construct: made in house
T1 sequence (P47895 1-512): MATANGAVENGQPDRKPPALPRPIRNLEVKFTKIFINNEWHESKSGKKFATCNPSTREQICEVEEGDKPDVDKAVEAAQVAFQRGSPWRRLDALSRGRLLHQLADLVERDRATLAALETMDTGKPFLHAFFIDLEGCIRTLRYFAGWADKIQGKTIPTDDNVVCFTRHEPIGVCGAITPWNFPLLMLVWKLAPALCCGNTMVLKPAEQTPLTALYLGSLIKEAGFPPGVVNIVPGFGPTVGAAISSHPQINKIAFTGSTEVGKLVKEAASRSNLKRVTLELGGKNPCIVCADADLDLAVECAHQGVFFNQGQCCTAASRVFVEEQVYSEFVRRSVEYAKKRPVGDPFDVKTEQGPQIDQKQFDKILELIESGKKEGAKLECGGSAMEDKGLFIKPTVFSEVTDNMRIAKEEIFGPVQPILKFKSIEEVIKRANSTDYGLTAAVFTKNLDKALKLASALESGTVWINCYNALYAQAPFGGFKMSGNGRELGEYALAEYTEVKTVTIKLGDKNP
As to the kind of experiment: ALDH1A3 inhibition, IC50, Ki and type of inhibition. Type of experiment: biochemical. As to conditions: for IC50: 6 μM hexanal as substrate.

In another experiment the target is T2, Human ALDH3A1 (Homo sapiens, UniProt P30838).
T2 construct: made in house
T2 sequence (P30838 1-453): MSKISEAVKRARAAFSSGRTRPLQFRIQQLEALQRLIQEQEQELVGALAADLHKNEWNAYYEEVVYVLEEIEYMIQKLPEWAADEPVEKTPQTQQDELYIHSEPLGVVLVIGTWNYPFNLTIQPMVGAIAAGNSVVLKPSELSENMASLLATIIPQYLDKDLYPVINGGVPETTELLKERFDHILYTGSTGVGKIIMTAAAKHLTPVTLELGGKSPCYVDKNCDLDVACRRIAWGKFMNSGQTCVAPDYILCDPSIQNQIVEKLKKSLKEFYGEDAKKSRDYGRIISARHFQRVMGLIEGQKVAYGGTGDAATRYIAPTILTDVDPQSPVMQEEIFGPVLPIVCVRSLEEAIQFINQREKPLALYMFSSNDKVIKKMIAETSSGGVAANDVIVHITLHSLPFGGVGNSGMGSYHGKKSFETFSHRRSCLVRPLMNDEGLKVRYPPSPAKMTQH
As to the kind of experiment: DEAB analogues as substrates of ALDH3A1 (substrate activity and kinetics). Type of experiment: biochemical. As to conditions: for ALDH3A1 substrate activity: 10 μM compound as substrate, relative to activity with 10 μM 4-NBA (Figure S2). The procedure: Human ALDH1A1, ALDH1A3, and ALDH3A1 were cloned and recombinantly expressed from the pET-30 Xa/LIC vector. Protein purification was achieved by affinity chromatography on a nickel-charged chelating Sepharose Fast Flow 5-mL column (His Trap column, Cytiva), which specifically binds the protein due to its N-terminal (His)6 tag, using an ÄKTA FPLC system (Cytiva), as previously described.[55] Enzymes including the His tag were stored at −80 °C in 20 mM Tris/HCl and 0.5 M NaCl, pH 8.0, until use. Reaction buffers were as follows: ALDH1A1 was assayed in 50 mM HEPES, 0.5 mM EDTA, and 0.5 mM DTT, pH 8.0; ALDH1A3 was assayed in 50 mM HEPES, 30 mM MgCl2, and 5 mM DTT, pH 8.0; and ALDH3A1 was assayed in 50 mM Tris–HCl and 5 mM DTT, pH 8.0. Activity under standard conditions was measured fluorimetrically at 25 °C using a Cary Eclipse (Varian) fluorimeter to follow the purification procedure and to check the enzyme concentration before each kinetic experiment. The fluorescence of NADH was characterized at 460 nm with excitation at 340 nm, and 5 μM NAD(P)H was added as an internal standard to obtain the absolute reaction rates.[55] Standard activity was measured at saturating concentrations of substrate using 30 μM hexanal (ALDH1A1), 250 μM hexanal (ALDH1A3), or 250 μM 4-NBA (ALDH3A1). NAD^+ was 500 μM for ALDH1A1 and ALDH1A3, and NADP^+ was 1 mM for ALDH3A1.
According to their structure with a carbonyl group, compounds were tested for their substrate properties against ALDH1A1, ALDH1A3, and ALDH3A1. […] Results are expressed as the percentage of activity at 10 μM versus the activity at 10 μM of their standard substrate (hexanal or 4-NBA). Values are expressed as the mean ± SE.
To calculate the Km value of compound 18 as a substrate for ALDH3A1, several concentrations of compound 18 were used. Experimental values were fitted to the adaptation of the Michaelis–Menten equation for substrate inhibition [drawing 1] and shown as the mean ± SE.

The IC50 is the midpoint of a concentration-inhibition curve. For orientation: Km means the concentration of substrate that gives half-maximal velocity. As to `CCCN(CCC)c1ccc(C=O)cc1[N+](=O)[O-]` [Compound 18, 4-(Dipropylamino)-3-Nitrobenzaldehyde], the IC50 is 100 ± 13 µM in the experiment on DU145 and 106 ± 16 µM at Human ALDH1A3 (mean ± SE). Further, at Human ALDH3A1, the ALDH3A1 substrate activity stood at 4.21%. In addition, the “Ksi as ALDH3A1 substrate” value at Human ALDH3A1 (fit to substrate inhibition equation, mean ± SE) worked out at 113 ± 25 µM. Besides, at Human ALDH3A1 (mean ± SE), the Km was 2.82 ± 0.35 µM. In addition, at Human ALDH3A1 (mean ± SE), the “kcat as ALDH3A1 substrate” value worked out at 13.4 ± 0.7 min^–1.
The term Ki denotes the equilibrium dissociation constant of an inhibitor or competing ligand from its target. Regarding `CCCN(CCC)c1ccc(C=O)cc1Br` [Compound 14, 3-Bromo-4-(dipropylamino)benzaldehyde], the IC50 with DU145 is 61 ± 5 µM; on Human ALDH1A3 (mean ± SE) it was 0.63 ± 0.02 µM. The “type of inhibition ALDH1A3” value at Human ALDH1A3 (hexanal as substrate) is recorded as “competitive”. Besides, the Ki on Human ALDH1A3 (hexanal as substrate, fit to competitive inhibition equation, mean ± SE) was found to be 0.46 ± 0.15 µM. Moreover, the “fold difference in capacity to inhibit ALDH1A3, 14 vs 13” value on Human ALDH1A3 (ratio of IC50 values) is on record as “approximately 17 fold”. The ALDH3A1 substrate activity entry on Human ALDH3A1 is “lower than 5%”.

The record behind these values is article PMC9007462 (Journal of Medicinal Chemistry, 2022).
